Measurements reported in BindingDB's records for patent US11352356 (Takeda Pharmaceutical Company Limited, 2022).

Each molecule was assayed against Plasma kallikrein (Human, UniProt P03952) (assay: Inhibitory Activity Assay).
Method: Example compounds were evaluated for inhibition of the human activated kallikrein enzyme in two formats of an assay employing a fluorogenic peptide substrate. In one assay format, the concentrations of reagents were as follows: 20 mM Tris pH 7.5, 1 mM EDTA, 150 mM sodium chloride, 0.1% PEG-400, 0.1% Triton X-100, 500 pM activated kallikrein enzyme, 300 uM Pro-Phe-Arg-7-amido-4-methylcoumarin substrate. Prior to reaction initiation with substrate, enzyme and inhibitors were preincubated for 30 min at RT. After initiation with substrate, reactions were incubated for 10 min at RT and fluorescence emission at 460 nm from 380 nm excitation measured with a microplate reader. In another assay format, the concentrations of reagents were as follows: 20 mM Tris pH 7.5, 1 mM EDTA, 150 mM sodium chloride, 0.1% PEG-400, 0.1% Triton X-100, 5 pM activated kallikrein enzyme, 300 uM Pro-Phe-Arg-7-amido-4-methylcoumarin substrate. Prior to reaction initiation with substrate, enzyme and inhibitors were preincubated for 30 min at RT. After initiation with substrate, reactions were incubated for 18 h at RT and fluorescence emission at 460 nm from 380 nm excitation measured with a microplate reader.

Chain of Plasma kallikrein (P03952 20-390 S143N limits assumed): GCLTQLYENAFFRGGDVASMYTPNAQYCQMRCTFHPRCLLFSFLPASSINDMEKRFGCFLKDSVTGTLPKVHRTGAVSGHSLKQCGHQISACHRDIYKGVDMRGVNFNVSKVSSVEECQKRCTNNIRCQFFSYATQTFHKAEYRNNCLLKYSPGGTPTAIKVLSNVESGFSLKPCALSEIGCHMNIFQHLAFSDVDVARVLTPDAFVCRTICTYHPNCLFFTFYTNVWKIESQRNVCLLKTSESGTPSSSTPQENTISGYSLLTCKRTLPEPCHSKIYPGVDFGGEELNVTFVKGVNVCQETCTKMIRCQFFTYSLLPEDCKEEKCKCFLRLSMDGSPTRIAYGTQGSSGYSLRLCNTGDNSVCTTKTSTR
Chain of Plasma kallikrein (P03952 391-638 limits assumed): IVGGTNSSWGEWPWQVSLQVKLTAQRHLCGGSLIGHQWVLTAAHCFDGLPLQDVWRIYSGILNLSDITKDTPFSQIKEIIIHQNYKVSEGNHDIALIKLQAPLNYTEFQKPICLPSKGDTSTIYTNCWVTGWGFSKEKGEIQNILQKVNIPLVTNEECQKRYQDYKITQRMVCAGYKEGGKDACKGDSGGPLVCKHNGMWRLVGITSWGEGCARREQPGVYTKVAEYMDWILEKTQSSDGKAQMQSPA

EC50, < 1 nM:
O=C(NCc1ncn2ccc(Cl)cc12)c1cnn(Cc2cn3ccc(C4CC4)c(F)c3n2)c1 [US11352356, Compound I-144]
O=C(NCc1ncn2ccc(Cl)c(F)c12)c1cn(Cc2cn3ccc(C4CC4)cc3n2)nn1 [US11352356, Compound I-148]
CC(C)(C)OC(=O)C(C)(C)Oc1cc(C2CC2)cn2cc(Cn3cc(C(=O)NCc4ncn5ccc(Cl)c(F)c45)nn3)nc12 [US11352356, Compound I-212]
COC(=O)c1cnn(-c2cc(C3CC3)cn3cc(Cn4cc(C(=O)NCc5ncn6ccc(Cl)c(F)c56)nn4)nc23)c1 [US11352356, Compound I-230]
CCOC(COCc1cc(C2CC2)cn2cc(Cn3cc(C(=O)NCc4ncn5ccc(Cl)c(F)c45)nn3)nc12)OCC [US11352356, Compound I-301]
CC(C)(C)[S+]([O-])NCCOCc1cc(C2CC2)cn2cc(Cn3cc(C(=O)NCc4ncn5ccc(Cl)c(F)c45)nn3)nc12 (stereo unspecified) [US11352356, Compound I-302]
